How the values were obtained:
Nilgai, deer = experiment: Observed repellence of vermin mammal species; format: in vivo; details: because of its bitterness
average person = details: cited from earlier work
[1] = in vivo; cited from earlier work

## CC[N+](CC)(CC(=O)Nc1c(C)cccc1C)Cc1ccccc1.O=C([O-])c1ccccc1 [Denatonium benzoate, phenylmethyl-[2-[(2,6-dimethylphenyl)amino]-2-oxoethyl]-diethylammonium benzoate]
Nilgai, deer
  repellence of vermin mammals: effectively repelled
Average person; level of recognised bitter taste
  generally recognized bitter taste: 50 ppb
Average person; taste detection level
  can be detected by the average person: 10 ppb
[1]
  human safety in clinical trials: extremely human safe
